Reference: ChEMBL document CHEMBL2331130, “Synthesis and antibacterial activity of 9-oxime ether non-ketolides, and novel binding mode of alkylides with bacterial rRNA” (2013)
Values after ≈ are worked out from the molar mass of the structure shown.

Legend:
Format in all cases: functional
[1] = system: Staphylococcus epidermidis; assay: Antibacterial activity against methicillin-resistant, coagulase-negative, MLS-resistant (inducible) Staphylococcus epidermidis E3 by broth microdilution method
[2] = system: Staphylococcus epidermidis; assay: Antibacterial activity against methicillin-resistant, MLS-resistant (constitutive) Staphylococcus epidermidis E2 by broth microdilution method
[3] = system: Staphylococcus epidermidis; assay: Antibacterial activity against methicillin-susceptible, MLS-resistant (inducible) Staphylococcus epidermidis E1 by broth microdilution method
Staphylococcus aureus [4] = assay: Antibacterial activity against methicillin-resistant, […], MLS-resistant (constitutive) Staphylococcus aureus PU 19 by broth microdilution method
Staphylococcus aureus [5] = assay: Antibacterial activity against methicillin-resistant, MLS-resistant (inducible) Staphylococcus aureus PU 32 by broth microdilution method
Staphylococcus aureus [6] = assay: Antibacterial activity against erythromycin-susceptible Staphylococcus aureus ATCC 29213 by broth microdilution method
Streptococcus pyogenes [7] = assay: Antibacterial activity against erythromycin-susceptible Streptococcus pyogenes A3 by broth microdilution method
Streptococcus pyogenes [8] = assay: Antibacterial activity against MLS-resistant (constitutive) Streptococcus pyogenes A2 by broth microdilution method
[9] = system: Streptococcus dysgalactiae; assay: Antibacterial activity against erythromycin-resistant Streptococcus dysgalactiae A1 by broth microdilution method
Streptococcus pneumoniae [10] = assay: Antibacterial activity against MLS-resistant (constitutive), penicillin-resistant Streptococcus pneumoniae PU11 by broth microdilution method
Streptococcus pneumoniae [11] = assay: Antibacterial activity against penicillin-susceptible Streptococcus pneumoniae PU09 harboring mef gene by broth microdilution method
Streptococcus pneumoniae [12] = assay: Antibacterial activity against erythromycin-susceptible Streptococcus pneumoniae ATCC 49619 by broth microdilution method
Staphylococcus aureus [13] = assay: Antibacterial activity against methicillin-susceptible, MLS-resistant (inducible) Staphylococcus aureus PU 64 by broth microdilution method
Staphylococcus aureus [14] = assay: Antibacterial activity against methicillin-resistant, MLS-resistant (constitutive) Staphylococcus aureus PU 20 by broth microdilution method
Streptococcus pneumoniae [15] = assay: Antibacterial activity against MLS-resistant (constitutive), penicillin-susceptible Streptococcus pneumoniae PU27 by broth microdilution method

Row | Structure (SMILES) | MIC [1] [µg/mL] | MIC [2] [µg/mL] | MIC [3] [µg/mL] | MIC (Staphylococcus aureus [4]) [µg/mL] | MIC (Staphylococcus aureus [5]) [µg/mL] | MIC (Staphylococcus aureus [6]) [µg/mL] | MIC (Streptococcus pyogenes [7]) [µg/mL] | MIC (Streptococcus pyogenes [8]) [µg/mL] | MIC [9] [µg/mL] | MIC (Streptococcus pneumoniae [10]) [µg/mL] | MIC (Streptococcus pneumoniae [11]) [µg/mL] | MIC (Streptococcus pneumoniae [12]) [µg/mL] | MIC (Staphylococcus aureus [13]) [µg/mL] | MIC (Staphylococcus aureus [14]) [µg/mL] | MIC (Streptococcus pneumoniae [15]) [µg/mL]
1 | CC[C@H]1OC(=O)[C@H](C)C(=O)[C@H](C)[C@@H](O[C@@H]2O[C@H](C)C[C@H](N(C)C)[C@H]2O)[C@](C)(OC)C[C@@H](C)/C(=N\OC/C=C/c2ccc(-c3ccccn3)s2)[C@H](C)[C@H]2OC(=O)O[C@@]21C | 64 (≈ 77.3 µM) | > 256 | 32 (≈ 38.6 µM) | 128 (≈ 155 µM) | 8 (≈ 9.66 µM) | 8 (≈ 9.66 µM) | 0.5 (≈ 0.604 µM) | 64 (≈ 77.3 µM) | 4 (≈ 4.83 µM) | 64 (≈ 77.3 µM) | 4 (≈ 4.83 µM) | 0.5 (≈ 0.604 µM) |  |  | 
2 | CC[C@H]1OC(=O)[C@H](C)C(=O)[C@H](C)[C@@H](O[C@@H]2O[C@H](C)C[C@H](N(C)C)[C@H]2O)[C@](C)(OC)C[C@@H](C)/C(=N\OC/C=C/c2ccc(C(=O)c3ccccc3)s2)[C@H](C)[C@H]2OC(=O)O[C@@]21C | 64 (≈ 74.8 µM) | > 256 | 32 (≈ 37.4 µM) | > 256 | 16 (≈ 18.7 µM) | 16 (≈ 18.7 µM) | 2 (≈ 2.34 µM) | 64 (≈ 74.8 µM) | 4 (≈ 4.68 µM) | 64 (≈ 74.8 µM) | 4 (≈ 4.68 µM) | 2 (≈ 2.34 µM) |  |  | 
3 | CC[C@H]1OC(=O)[C@H](C)C(=O)[C@H](C)[C@@H](O[C@@H]2O[C@H](C)C[C@H](N(C)C)[C@H]2O)[C@](C)(OC)C[C@@H](C)/C(=N\OC/C=C/c2ccc(-c3cccs3)cc2)[C@H](C)[C@H]2OC(=O)O[C@@]21C | 64 (≈ 77.4 µM) | 256 (≈ 310 µM) | 64 (≈ 77.4 µM) | 64 (≈ 77.4 µM) | 64 (≈ 77.4 µM) | 32 (≈ 38.7 µM) | 1 (≈ 1.21 µM) | 32 (≈ 38.7 µM) | 16 (≈ 19.3 µM) | 64 (≈ 77.4 µM) | 16 (≈ 19.3 µM) | 2 (≈ 2.42 µM) |  |  | 
4 | CC[C@H]1OC(=O)[C@H](C)[C@@H](O/C=C\Cc2cncnc2)[C@H](C)[C@@H](O[C@@H]2O[C@H](C)C[C@H](N(C)C)[C@H]2O)[C@](C)(OC)C[C@@H](C)/C(=N\OC/C=C/c2cnc3ccccc3c2)[C@H](C)[C@H]2OC(=O)O[C@@]21C | > 256 | > 256 | > 256 | > 256 | > 256 | 32 (≈ 34.9 µM) | 2 (≈ 2.18 µM) | 64 (≈ 69.9 µM) | 16 (≈ 17.5 µM) | 128 (≈ 140 µM) | 32 (≈ 34.9 µM) | 2 (≈ 2.18 µM) | 32 (≈ 34.9 µM) | > 256 | 64 (≈ 69.9 µM)
5 | CC[C@H]1OC(=O)[C@H](C)[C@@H](O)[C@H](C)[C@@H](O[C@@H]2O[C@H](C)C[C@H](N(C)C)[C@H]2O)[C@](C)(OC)C[C@@H](C)/C(=N\OC/C=C/c2cnc3ccccc3c2)[C@H](C)[C@H]2OC(=O)O[C@@]21C | > 256 | > 256 | 128 (≈ 160 µM) | > 256 | 128 (≈ 160 µM) | 128 (≈ 160 µM) | 8 (≈ 10 µM) | 64 (≈ 80.2 µM) | 16 (≈ 20.1 µM) | 64 (≈ 80.2 µM) | 4 (≈ 5.01 µM) | 4 (≈ 5.01 µM) | 256 (≈ 321 µM) | > 256 | 64 (≈ 80.2 µM)
6 | CC[C@H]1OC(=O)[C@H](C)[C@@H](O)[C@H](C)[C@@H](O[C@@H]2O[C@H](C)C[C@H](N(C)C)[C@H]2O)[C@](C)(OC)C[C@@H](C)/C(=N\OCCCc2cncc3ccccc23)[C@H](C)[C@H]2OC(=O)O[C@@]21C | > 256 | > 256 | > 256 | > 256 | > 256 | > 256 | 4 (≈ 5 µM) | 32 (≈ 40 µM) | 16 (≈ 20 µM) | 32 (≈ 40 µM) | 8 (≈ 10 µM) | 8 (≈ 10 µM) | 256 (≈ 320 µM) | > 256 | 32 (≈ 40 µM)
7 | CC[C@H]1OC(=O)[C@H](C)[C@@H](OC(=O)Cc2cccnc2)[C@H](C)[C@@H](O[C@@H]2O[C@H](C)C[C@H](N(C)C)[C@H]2O)[C@](C)(OC)C[C@@H](C)/C(=N\OC/C=C/c2cnc3ccccc3c2)[C@H](C)[C@H]2OC(=O)O[C@@]21C | > 256 | > 256 | > 256 | > 256 | 64 (≈ 69.8 µM) | 64 (≈ 69.8 µM) | 1 (≈ 1.09 µM) | 128 (≈ 140 µM) | 16 (≈ 17.4 µM) | 128 (≈ 140 µM) | 8 (≈ 8.72 µM) | 2 (≈ 2.18 µM) | 32 (≈ 34.9 µM) | > 256 | 64 (≈ 69.8 µM)
8 | CC[C@H]1OC(=O)[C@H](C)[C@@H](OC(=O)Cc2ccccn2)[C@H](C)[C@@H](O[C@@H]2O[C@H](C)C[C@H](N(C)C)[C@H]2O)[C@](C)(OC)C[C@@H](C)/C(=N\OC/C=C/c2cnc3ccccc3c2)[C@H](C)[C@H]2OC(=O)O[C@@]21C | 32 (≈ 34.9 µM) | > 256 | 32 (≈ 34.9 µM) | > 256 | 64 (≈ 69.8 µM) | 32 (≈ 34.9 µM) | 0.5 (≈ 0.545 µM) | 32 (≈ 34.9 µM) | 8 (≈ 8.72 µM) | 64 (≈ 69.8 µM) | 16 (≈ 17.4 µM) | 1 (≈ 1.09 µM) | 32 (≈ 34.9 µM) | > 256 | 32 (≈ 34.9 µM)
9 | CC[C@H]1OC(=O)[C@H](C)[C@@H](OC(=O)Cc2cccnc2)[C@H](C)[C@@H](O[C@@H]2O[C@H](C)C[C@H](N(C)C)[C@H]2O)[C@](C)(OC)C[C@@H](C)/C(=N\OCC#Cc2cncc3ccccc23)[C@H](C)[C@H]2OC(=O)O[C@@]21C | > 256 | > 256 | > 256 | > 256 | 64 (≈ 69.9 µM) | 32 (≈ 35 µM) | 1 (≈ 1.09 µM) | 64 (≈ 69.9 µM) | 8 (≈ 8.74 µM) | 64 (≈ 69.9 µM) | 8 (≈ 8.74 µM) | 1 (≈ 1.09 µM) | 32 (≈ 35 µM) | > 256 | 64 (≈ 69.9 µM)
10 | CC[C@H]1OC(=O)[C@H](C)[C@@H](OC(=O)Cc2ccccn2)[C@H](C)[C@@H](O[C@@H]2O[C@H](C)C[C@H](N(C)C)[C@H]2O)[C@](C)(OC)C[C@@H](C)/C(=N\OCC#Cc2cncc3ccccc23)[C@H](C)[C@H]2OC(=O)O[C@@]21C | > 256 | > 256 | > 256 | > 256 | 32 (≈ 35 µM) | 32 (≈ 35 µM) | 8 (≈ 8.74 µM) | 32 (≈ 35 µM) | 8 (≈ 8.74 µM) | 32 (≈ 35 µM) | 8 (≈ 8.74 µM) | 1 (≈ 1.09 µM) | 16 (≈ 17.5 µM) | > 256 | 32 (≈ 35 µM)
11 | CC[C@H]1OC(=O)[C@H](C)[C@@H](O[C@H]2C[C@@](C)(OC)[C@@H](O)[C@H](C)O2)[C@H](C)[C@@H](O[C@@H]2O[C@H](C)C[C@H](N(C)C)[C@H]2O)[C@](C)(O)C[C@@H](C)CN(C)[C@H](C)[C@@H](O)[C@]1(C)O [AZITHROMYCIN] | > 256 | > 256 | > 256 | > 256 | > 256 | 2 (≈ 2.67 µM) | ≤ 0.008 | > 256 | 64 (≈ 85.4 µM) | > 256 | 64 (≈ 85.4 µM) | 0.25 (≈ 0.334 µM) |  |  | 
